In PubChem BioAssay AID504539 (Broad Institute, 2011) one finds AC50 data, which are given here for 89 molecules.

The subject of this assay is Cell-based prion protein 5' UTR reporter, plate reader. Briefly: prion protein 5' UTR mRNA inhibitors – cell-based, plate reader, cherry-picked samples, dose response (AID 504539).
Turning to `O=C(/C=C/c1ccccc1)Nc1cccc(C(=O)O)c1`, the AC50 is 392 nM.

As for `Cc1ccc(CCC(=O)Nc2ncc(Cc3cccc(Cl)c3Cl)s2)o1`, the AC50 was 358 nM.

For `COC(C(=O)C(O)C(C)O)C1Cc2cc3cc(OC4CC(OC5CC(O)C(O)C(C)O5)C(O)C(C)O4)c(C)c(O)c3c(O)c2C(=O)C1OC1CC(OC2CC(OC3CC(O)C(OC)C(C)O3)C(O)C(C)O2)C(O)C(C)O1` (centres undefined), the AC50 was 83 nM.

With `O=[N+]([O-])c1cccc2nc3ccccc3c(NCCCn3ccnc3[N+](=O)[O-])c12`, the concentration at half-maximal activity (AC50) was 76 nM.

In the case of `COc1ccc(C2=Nn3c(nnc3-c3ccccc3OC)SC2)cc1OC`, the AC50 is 395 nM.

`Cc1c(C(=O)N/N=C/c2ccc(Cl)cc2)[nH]c2ccc(Cl)cc12`: the AC50 was 1090 nM.

With `CC(=O)c1sc2c(c1OC(=O)c1ccc(Cl)cc1Cl)c(=O)n(-c1ccccc1)c(=S)n2-c1ccccc1`, the AC50 is 452 nM.

For `Cc1ccc(-c2cn3nc(C)c(C)nc3n2)cc1`, the AC50 is 485 nM.

On to `CN1C2CCC1/C(=C/c1ccccn1)C(=O)/C2=C\c1ccccn1`, for which the AC50 is 773 nM.

Take `CC12CCC3C(CCC4(O)CC(O)CCC34C=NO)C1(O)CCC2C1=COC(=O)C1` (centres undefined): the AC50 is 160 nM.

For the molecule `COc1ccc(-c2cc(-c3cccs3)c(C#N)c(SCC(=O)NCc3ccco3)n2)cc1`, the AC50 was 1530 nM.

Take `Cc1ccc(-c2cc3c(nn2)-c2ccccc2C3=O)cc1`: the AC50 was 575 nM.

For `Clc1ccc(-n2ncc3c(N4CCCCCC4)ncnc32)cc1`, the AC50 was 795 nM.

As for `COc1ccc(/C=N/NC(=O)c2[nH]c3ccc(Br)cc3c2-c2ccccc2)cc1`, the AC50 was 209 nM.

With `CCN1C/C(=C\c2cccc([N+](=O)[O-])c2)C(=O)/C(=C/c2cccc([N+](=O)[O-])c2)C1`, the AC50 is 2350 nM.

With `C[C@H]1CCC/C=C/C2C[C@H](O)CC2[C@H](O)/C=C/C(=O)O1` (some centres undefined), the concentration at half-maximal activity (AC50) is 40 nM.

Turning to `COC(=O)Cc1[nH]n(-c2nc3ccccc3s2)c(=O)c1C(C)=Nc1ccc(C)cc1`, the AC50 is 401 nM.

Turning to `Cc1cc(C)c(C#N)c(SCc2nnc(-c3ccccc3)o2)n1`, the concentration at half-maximal activity (AC50) is 1990 nM.

In the case of `CC1CCc2c(sc(NC(=O)CSc3ncn[nH]3)c2C#N)C1` (centres undefined), the AC50 is 257 nM.

Regarding `COc1ccccc1NC(=O)c1oc2ccccc2c1NC(=O)c1cc(OC)c(OC)c(OC)c1`, the concentration at half-maximal activity (AC50) was 537 nM.

Regarding `Cc1ccc(C(=O)n2c(N)nc3ccccc32)cc1`, the concentration at half-maximal activity (AC50) was 493 nM.

Turning to `COc1ccccc1C(=O)Nc1nc2ccccc2s1`, the AC50 is 204 nM.

Consider `CN1CCN(c2ccc([N+](=O)[O-])c3no[n+]([O-])c23)CC1`, for which the AC50 is 2340 nM.

For the molecule `COc1ccc(OC)c(C2C3=C(COC3=O)Nc3cc4c(cc32)OCO4)c1` (centres undefined), the AC50 is 197 nM.

Regarding `CSc1nc(-c2ccccc2)nc(C(Cl)Cl)n1`, the half-maximal activity concentration (AC50) was 1270 nM.

With `N#CC1=C(N)OC2=C(CCc3ccccc32)C1c1ccccc1` (centres undefined), the AC50 is 945 nM.

For the molecule `CC(/C=C1\SC(=O)N(CCCC(=O)O)C1=O)=C\c1ccccc1`, the AC50 is 162 nM.

`Cc1ccc(C(=O)Nc2cc3ccccc3oc2=O)cc1`: the AC50 was 143 nM.

As to `Cc1cc(/C=C2\SC(=S)N(C)C2=O)c(C)n1-c1ccc(O)cc1`, the AC50 is 130 nM.

Regarding `C=CCOc1ccc(/C=C2\SC(=S)N(CCC(=O)O)C2=O)cc1`, the AC50 was 963 nM.

For the molecule `COc1cccc(C(=O)O/N=C(\N)c2ccccn2)c1`, the AC50 is 448 nM.

Turning to `CCc1ccc(-c2cc(C(=O)Nn3cnnc3)c3ccccc3n2)cc1`, the AC50 was 510 nM.

`Cc1cc(NC(=O)CSc2nc(-c3ccco3)cc(C(F)(F)F)n2)no1`: the AC50 is 560 nM.

`COc1c(C=O)c2c(c(OC)c1OC)-c1ccc(OC)c(=O)cc1C(NC(C)=O)CC2` (centres undefined): the half-maximal activity concentration (AC50) was 300 nM.

In the case of `COc1ccc(OC)c(Nc2c3c(nc4ccccc24)CCC3)c1`, the half-maximal activity concentration (AC50) is 1600 nM.

`Cc1nn(C(C)(C)C)c(C)c1/C=N/OC(=O)Nc1ccc(Cl)cc1`: the AC50 is less than 38 nM.

`Cc1cc(C(=O)COC(=O)c2ccccc2O)c(C)n1Cc1cccs1`: the AC50 was 83 nM.

Consider `CCC(C)C1NC(=O)C(NC(=O)C(CC(C)C)N(C)C(=O)C2CCCN2C(=O)C(C)O)C(C)OC(=O)C(Cc2ccc(OC)cc2)N(C)C(=O)C2CCCN2C(=O)C(CC(C)C)NC(=O)[C@H](C)C(=O)[C@H](C(C)C)OC(=O)CC1O` (some centres undefined), for which the AC50 was 84 nM.

For `CN(C)c1ccc(CCc2ccc(N)cc2)cc1`, the AC50 is 831 nM.

As for `Cc1ccc(-n2nnc(-c3nccs3)n2)cc1`, the AC50 is 571 nM.

Turning to `CCC1=Nc2cc(C(=O)NCc3ccco3)ccc2Sc2ccc(C)cc21`, the AC50 was 652 nM.

For the molecule `C[C@@H]1O[C@@H](O[C@@H]2C=C3CCC4C(CC[C@]5(C)[C@@H](c6ccc(=O)oc6)CC[C@]45O)[C@@]3(C)CC2)[C@H](O)[C@H](O)[C@H]1O` (some centres undefined), the half-maximal activity concentration (AC50) is less than 38 nM.

For `Cc1ccc(-c2nc(-c3ccccn3)no2)cc1`, the AC50 was 140 nM.

In the case of `COc1cc(/C=N/O)ccc1OCc1ccc(C(=O)O)cc1`, the AC50 was 226 nM.

Consider `N#Cc1c(NC(=O)CSc2ncn[nH]2)sc2c1CCCC2`, for which the AC50 was 303 nM.

Turning to `C=CCn1c(SCc2c(C)noc2C)nc2ccccc2c1=O`, the AC50 was 851 nM.

On to `CC(=NNC(=S)N(Cc1ccccn1)Cc1ccccn1)c1cnccn1`, for which the AC50 is 878 nM.

Consider `COC(=O)c1c(NC(=O)c2ccc([N+](=O)[O-])o2)sc2c1CCN(C(C)C)C2`, for which the AC50 was 2860 nM.

Regarding `CC1CCCN(c2ncnc3c2cnn3-c2ccc(Cl)cc2)C1` (centres undefined), the AC50 was less than 38 nM.

Take `C[C@]12CC[C@H](O)C[C@H]1CC[C@@H]1[C@@H]2CC[C@]2(C)[C@@H](C3=CC(=O)OC3)CC[C@]12O`: the concentration at half-maximal activity (AC50) is 235 nM.

In the case of `Cc1nn(-c2ccccc2Cl)c(Cl)c1/C=N/Nc1cccc(C(=O)O)c1`, the AC50 is 576 nM.

Consider `CC(=O)O[C@H]1C(=O)[C@@]2(C)C([C@H](OC(=O)c3ccccc3)[C@]3(O)C[C@H](OC(=O)[C@H](O)[C@@H](NC(=O)c4ccccc4)c4ccccc4)C(C)=C1C3(C)C)[C@]1(OC(C)=O)CO[C@@H]1C[C@H]2O` (some centres undefined), for which the AC50 was 160 nM.

For the molecule `COC(=O)c1ccc(Oc2cc(C)nc(-n3nc(C)cc3C)n2)cc1`, the AC50 was 536 nM.

Regarding `CCOc1ccc(/C=C2\SC(=S)N(CCC(=O)O)C2=O)cc1`, the half-maximal activity concentration (AC50) was 277 nM.

For the molecule `O=C(N/N=C/c1ccccc1)c1[nH]c2ccc(Br)cc2c1-c1ccccc1`, the concentration at half-maximal activity (AC50) is 460 nM.

In the case of `C(=NN1CCCCCC1)c1ccc2ccccc2n1`, the AC50 was less than 38 nM.

Regarding `CC(=O)OC1C2(CC3N4C(=O)C5(CO)SSC4(CC31O)C(=O)N5C)OC(C)C(C)(C)C2=O` (centres undefined), the AC50 is 295 nM.

In the case of `O=C(O)c1ccc(N/N=C/c2ccc3c(c2)OCO3)cc1`, the AC50 is 419 nM.

With `COc1ccc(OC)c(-c2nnc3n2N=C(c2ccc(OC)c(OC)c2)CS3)c1`, the AC50 is 261 nM.

`N/C(=N\OCc1ccc([N+](=O)[O-])cc1)c1ccccn1`: the AC50 is 219 nM.

With `COc1ccc(C(=O)/C=C/Nc2ccccn2)cc1`, the AC50 was 369 nM.

As to `CCOc1ccc(S(=O)(=O)Nc2cc(OC)ccc2OC)cc1`, the AC50 is 873 nM.

For the molecule `CCN(CC)c1ccc(C(=C2C=CC(=[N+](CC)CC)C=C2)c2ccccc2)cc1`, the AC50 was 892 nM.

In the case of `C/C(=N\NC(=O)c1n[nH]c2c1CCC2)c1cccs1`, the half-maximal activity concentration (AC50) was 401 nM.

In the case of `CCCc1ccc(C(=O)O/N=C(\N)c2ccccn2)cc1`, the AC50 was 1080 nM.

Turning to `COC(=O)CCn1nnc(-c2ccc(C(C)C)cc2)n1`, the AC50 is 314 nM.

With `COC(=O)CCC(=O)NC(=S)Nc1sc(C)c(C)c1C(N)=O`, the AC50 was 636 nM.

As for `CCOC(=O)c1c(C)[nH]c(C(=O)N/N=C/c2ccc(Br)cc2)c1C`, the AC50 is 378 nM.

Regarding `COc1cccc(/C=N/Nc2ccc(C(=O)O)cc2)c1O`, the AC50 is 222 nM.

Take `CC1=CC2OC3CC4OC(=O)C=CC=CC(=O)OCCC(C)C(O)C(=O)OCC2(CC1O)C4(C)C31CO1` (centres undefined): the concentration at half-maximal activity (AC50) is less than 38 nM.

For `O=C(CSc1nnc(-c2ccccc2)o1)Nc1ccccc1F`, the AC50 is 675 nM.

Consider `O=C(Nc1ccc(N2CCCCC2)cc1)c1ccccn1`, for which the AC50 was 273 nM.

Turning to `O=C(CN1C(=O)c2ccccc2S1(=O)=O)c1ccc2c(c1)OCCO2`, the AC50 is 114 nM.

Turning to `COC(=O)c1c(N)sc(C(=O)NCCc2ccccc2)c1C`, the half-maximal activity concentration (AC50) was 413 nM.

`CCOc1ccccc1C1CC(=O)Nc2cc3c(cc21)OCCO3` (centres undefined): the AC50 was 3820 nM.

On to `CC(=O)OC(C)(C)/C=C/C(=O)[C@](C)(O)[C@H]1[C@H](O)C[C@@]2(C)[C@@H]3CC=C4[C@H](C[C@H](O)C(=O)C4(C)C)[C@]3(C)C(=O)C[C@]12C`, for which the concentration at half-maximal activity (AC50) is less than 38 nM.

Regarding `Nc1ccc(Oc2cccc(Oc3ccc(N)cc3)c2)cc1`, the AC50 was 587 nM.

With `Nc1ncnc2c(C3OC(CO)C(O)C3O)c[nH]c12` (centres undefined), the concentration at half-maximal activity (AC50) is 76 nM.

For the molecule `O=c1cc(-c2ccc(O)cc2)oc2ccc3ccccc3c12`, the concentration at half-maximal activity (AC50) is 629 nM.

Take `CC(=O)O[C@H]1C(=O)[C@@]2(C)[C@H]([C@H](OC(=O)c3ccccc3)[C@]3(O)C[C@H](OC(=O)[C@H](O)[C@@H](NC(=O)c4ccccc4)c4ccccc4)C(C)=C1C3(C)C)[C@]1(OC(C)=O)CO[C@@H]1C[C@@H]2O`: the AC50 was 227 nM.

Turning to `O=c1c2ccccc2sc2ccc(C#CC3(O)CCCCC3)cc12`, the AC50 was less than 38 nM.

Turning to `COc1cc2cc(C(=O)N3CC(COS(C)(=O)=O)c4ccc(O)cc43)[nH]c2c(OC)c1OC` (centres undefined), the concentration at half-maximal activity (AC50) was less than 38 nM.

For `CCCC[C@@H](C)C[C@@H](C)C(=O)N(C)[C@@H](CC(C)C)C(=O)N[C@H](C(=O)N(C)[C@H](C(=O)N1C[C@@H](O)C[C@H]1C(=O)N1C(=O)C=C[C@@H]1C)C(C)C)C(C)OC(C)=O` (some centres undefined), the AC50 is less than 38 nM.

For `CC(C)(C)c1ccc(C(=O)O/N=C(\N)c2ccccn2)cc1`, the half-maximal activity concentration (AC50) is 317 nM.

Regarding `COc1ccc(OC)c(-c2nnc3n2N=C(c2ccc(OC)c(OC4CCOC4)c2)CS3)c1` (centres undefined), the AC50 was 554 nM.

With `COc1cc(SC)ccc1C(=O)Nc1nc(C)cs1`, the AC50 is 216 nM.

As to `COC(=O)C12OCC34C(CC5C(C)=C(O)C(=O)CC5(C)C3C(O)C1O)OC(=O)C(OC(=O)/C=C(\C)C(C)C)C24` (centres undefined), the AC50 was less than 38 nM.

Consider `CC(=O)OC1CC(OC2C(O)CC(OC3C(O)CC(OC4CCC5(C)C(CCC6C5CCC5(C)C(C7=CC(=O)OC7)C(O)CC65O)C4)OC3C)OC2C)OC(C)C1OC1OC(CO)C(O)C(O)C1O` (centres undefined), for which the half-maximal activity concentration (AC50) was 370 nM.

`COc1ccc(C(=O)Nc2ccc(C)cn2)c(OC)c1`: the AC50 is 280 nM.
